What all share (assay type): in vivo
One assay concerns Phytophthora infestans. In words: whole plant or invertebrate. The conditions noted are these: Phytophthora infestans, 72 h; for pest or weed control at 1 ppm: read-out: Efficacy in % found, Table A, test 1, 1 ppm a.i.
The test system of a further assay is Leptosphaeria nodorum. Nature of the assay: Leptosphaeria nodorum test (wheat)/preventive. The conditions noted are these: Parastagonospora nodorum, 192 h, Table K, read-out: Efficacy in % found; for pest or weed control at 500 ppm: 500 ppm a.i.; for pest or weed control at 125 ppm: 125 ppm a.i.; for pest or weed control at 62.5 ppm: 62.5 ppm a.i. How it is done: (§1) Solvent: 49 parts by weight of n,n-dimethylacetamid
(§2) Emulsifier: 1 part by weight of alkylaryl polyglycol ether
(§3) To produce a suitable preparation of active compound, 1 part by weight of active compound or active compound combination is mixed with the stated amounts of solvent and emulsifier, and the concentrate is diluted with water to the desired concentration. To test for preventive activity, young plants are sprayed with the preparation of active compound or active compound combination at the stated rate of application. After the spray coating has been dried, the plants are sprayed with a spore suspension of Leptosphaeria nodorum. The plants remain for 48 hours in an incubation cabinet at approximately 20° C. and a relative atmospheric humidity of approximately 100%. The plants are placed in the greenhouse at a temperature of approximately 22° C. and a relative atmospheric humidity of approximately 80%. The test is evaluated 8 days after the inoculation. 0% means an efficacy which corresponds to that of the untreated control, while an efficacy of 100% means that no disease is observed.

The test system of another assay is Venturia inaequalis. In words: Venturia test (apples)/protective. The conditions noted are these: Table D. How it is done:
(§4) Solvent: 24.5 parts by weight of acetone
(§5) • 24.5 parts by weight of dimethylacetamide Emulsifier: 1 part by weight of alkylaryl polyglycol ether
(§6) To produce a suitable preparation of active compound, 1 part by weight of active compound is mixed with the stated amounts of solvent and emulsifier, and the concentrate is diluted with water to the desired concentration. To test for protective activity, young plants are sprayed with the preparation of active compound at the stated rate of application. After the spray coating has dried on, the plants are inoculated with an aqueous conidia suspension of the causal agent of apple scab (Venturia inaequalis) and then remain for 1 day in an incubation cabinet at approximately 20° C. and a relative atmospheric humidity of 100%. The plants are then placed in a greenhouse at approximately 21° C. and a relative atmospheric humidity of approximately 90%. The test is evaluated 10 days after the inoculation. 0% means an efficacy which corresponds to that of the control, while an efficacy of 100% means that no disease is observed.

The subject of the next assay is Alternaria solani. Nature of the assay: Alternaria test (tomatoes)/protective. The conditions noted are these: Alternaria solani, 72 h, Table E, read-out: Efficacy in % found; for pest or weed control at 2 ppm: 2 ppm a.i.; for pest or weed control at 0.5 ppm: 0.5 ppm a.i. The method, then: as §4, §5
as §6, with “aqueous spore” for “aqueous conidia”, “of Alternaria solani. The plants are” for “of the causal agent of apple scab (Venturia inaequalis) and”, “then placed” for “then remain for 1 day”, “The” for “The plants are then placed in a greenhouse at approximately 21° C. and a relative atmospheric humidity of approximately 90%. The”, “evaluated 3” for “evaluated 10”, “the control” for “the control,”

The next assay has as its system Sphaerotheca fuliginea. Nature of the assay: Sphaerotheca test (cucumbers)/protective. The settings on record: Podosphaera fuliginea, 168 h, Table C, read-out: Efficacy in % found. The method, then:
as §4, §5
as §6, with “for protect” for “for protective”, “aqueous spore” for “aqueous conidia”, “of Sphaerotheca fuliginea.” for “of the causal agent of apple scab (Venturia inaequalis) and then remain for 1 day in an incubation cabinet at approximately 20° C. and a relative atmospheric humidity of 100%.”, “approximately 23°” for “approximately 21°”, “approximately 70%.” for “approximately 90%.”, “evaluated 7” for “evaluated 10”

In another assay the test system is Botrytis cinerea. In words: Botrytis test (beans)/protective. The conditions noted are these: Table F; for pest or weed control at 25 ppm / Efficacy in % found: test 1. The method, then:
as §4, §5
To produce a suitable preparation of active compound, 1 part by weight of active compound is mixed with the stated amounts of solvent and emulsifier, and the concentrate is diluted with water to the desired concentration. To test for protective activity, young plants are sprayed with the preparation of active compound. After the spray coating has dried on, 2 small pieces of agar covered with growth of Botrytis cinerea are placed on each leaf. The inoculated plants are placed in a darkened chamber at 20° C. and a relative atmospheric humidity of 100%. 2 days after the inoculation, the size of the lesions on the leaves is evaluated. 0% means an efficacy which corresponds to that of the control, while an efficacy of 100% means that no disease is observed.

A further assay deals with Septoria tritici. Nature of the assay: Septoria tritici-test (wheat)/preventive. The settings on record: Table H; 62.5 ppm a.i. The method, then: as §1, §2
as §3, with “suspension of Septoria tritici. The plants” for “suspension of Leptosphaeria nodorum. The plants”, “of approximately 100% and afterwards for 60 hours at approximately 15° C. in a translucent incubation cabinet at a relative atmospheric humidity of approximately 100%. The” for “of approximately 100%. The”, “of approximately 15° C. and” for “of approximately 22° C. and”, “is evaluated 21 days after” for “is evaluated 8 days after”

A further assay has as its system Pyrenophora teres. In words: Pyrenophora teres-test (barley)/preventive. How it is done:
as §1, §2
as §3, with “Pyrenophora teres.” for “Leptosphaeria nodorum.”, “20°” for “22°”

Where [1] appears, read: Botrytis cinerea, 48 h, 25 ppm a.i., read-out: Efficacy in % found.

Structures are written as SMILES.

As to `C[C@@]1(c2ccc(Oc3ccccc3)cc2)OC(=O)N(Nc2ccccc2)C1=O` (racemic) [(3.6), famoxadone], the pest or weed control at 2.5 ppm in the assay on Phytophthora infestans (read-out: Efficacy in % found, Table A, test 7, 2.5 ppm a.i.) worked out at 31%. The pest or weed control at 500 ppm in the assay with Leptosphaeria nodorum amounted to 67%.

Regarding `CC1(C(=O)Nc2ccc(O)c(Cl)c2Cl)CCCCC1` [(1.16), fenhexamid], in the assay on Venturia inaequalis (test 1, 12.5 ppm a.i.), the “Efficacy in % found” value was 0%. Further, the pest or weed control at 12.5 ppm with Alternaria solani (test 1, 12.5 ppm a.i.) was 0%.

Turning to `OC(Cc1ccccc1Cl)(Cn1nc[nH]c1=S)C1(Cl)CC1` (stereo not shown) [(1.41), prothioconazole], the pest or weed control at 0.5 ppm in the assay on Sphaerotheca fuliginea (test 1, 0.5 ppm a.i.) was 37%. Besides, in the assay with Alternaria solani (test 1), the pest or weed control at 2 ppm was determined as 30%. Further, the pest or weed control at 25 ppm in the assay on Botrytis cinerea (setting [1]) is 49%. In addition, in the assay on Leptosphaeria nodorum, the pest or weed control at 125 ppm worked out at 88%.

Take `CC(C)(C)C(O)(CCc1ccc(Cl)cc1)Cn1cncn1` (stereo not shown) [(1.47), tebuconazole]: the pest or weed control at 2 ppm is 50% in the assay on Sphaerotheca fuliginea (test 1, 2 ppm a.i.) and 35% with Alternaria solani (test 1). Also, the pest or weed control at 25 ppm with Botrytis cinerea (setting [1]) was 4%. For the same compound, the pest or weed control at 125 ppm in the assay with Leptosphaeria nodorum was 88%.

Consider `Cn1cc(C(=O)Nc2ccc(F)cc2-c2ccc(Cl)c(Cl)c2)c(C(F)F)n1` [(2.2), bixafen], for which the “Efficacy in % found” value in the assay on Venturia inaequalis (test 2, 0.5 ppm a.i.) is given as 0%; in the assay on Septoria tritici, 50%.

On to `O=C(Nc1ccccc1-c1ccc(Cl)cc1)c1cccnc1Cl` [(2.3), boscalid], for which the “Efficacy in % found” value in the assay with Venturia inaequalis (test 1, 5 ppm a.i.) is 0%; in the assay with Pyrenophora teres (Table I1, 62.5 ppm a.i.) it was 50%. Further, the pest or weed control at 25 ppm in the assay with Botrytis cinerea (setting [1]) amounted to 50%.

In the case of `O=C(NCCc1ncc(C(F)(F)F)cc1Cl)c1ccccc1C(F)(F)F` [(2.6), fluopyram], the “Efficacy in % found” value in the assay with Venturia inaequalis (test 1, 1 ppm a.i.) was found to be 0%; in the assay with Septoria tritici, 90%.

On to `CC(C)C1C2CCC1c1c(NC(=O)c3cn(C)nc3C(F)F)cccc12` (stereo not shown) [(2.10), isopyrazam], for which the “Efficacy in % found” value is given as 28% with Venturia inaequalis (test 1, 1 ppm a.i.) and 80% with Septoria tritici.

Turning to `Cc1nn(C)c(F)c1C(=O)Nc1ccccc1C(C)CC(C)C` (stereo not shown) [(2.19), penflufen], the “Efficacy in % found” value is listed as 0% in the assay with Venturia inaequalis (test 1, 1 ppm a.i.); 65% in the assay with Botrytis cinerea (50 ppm a.i.); 50% in the assay with Septoria tritici.

Regarding `Cn1cc(C(=O)Nc2ccccc2C2CC2C2CC2)c(C(F)F)n1` (stereo not shown) [(2.21), sedaxane], the “Efficacy in % found” value with Venturia inaequalis (test 1, 1 ppm a.i.) is recorded as 24%; in the assay with Botrytis cinerea (25 ppm a.i.) it was 30%; in the assay with Pyrenophora teres (Table I1, 125 ppm a.i.) it was 50%.

In the case of `Cn1cc(C(=O)Nc2ccccc2-c2ccccc2C(F)(F)F)c(C(F)(F)F)n1` [(2.26), 1-methyl-3-(trifluoromethyl)-N-[2′-(trifluoromethyl)biphenyl-2-yl]-1H-pyrazole-4-carboxamide], in the assay with Venturia inaequalis (test 1, 1 ppm a.i.), the “Efficacy in % found” value is 54%. Besides, in the assay with Botrytis cinerea (setting [1]), the pest or weed control at 25 ppm came out at 89%.

Turning to `CO/N=C(/C1=NOCCO1)c1ccccc1Oc1ncnc(Oc2ccccc2Cl)c1F` [(3.8), fluoxastrobin], the pest or weed control at 1 ppm in the assay with Phytophthora infestans was determined as 30%. Further, in the assay with Alternaria solani (test 1), the pest or weed control at 0.5 ppm was determined as 40%. The pest or weed control at 25 ppm in the assay on Botrytis cinerea (setting [1]) was determined as 8%. Besides, the pest or weed control at 62.5 ppm in the assay with Leptosphaeria nodorum stood at 63%.

Turning to `CO/N=C(/C(=O)OC)c1ccccc1COc1ccccc1C` [(3.9), kresoxim-methyl], in the assay with Sphaerotheca fuliginea (test 4, 5 ppm a.i.), the pest or weed control at 5 ppm was 52%. Moreover, the pest or weed control at 2.5 ppm with Alternaria solani (test 2, 2.5 ppm a.i.) was found to be 50%; in the assay on Botrytis cinerea (Botrytis cinerea, 48 h, test 3, 2.5 ppm a.i., read-out: Efficacy in % found) it was 75%. Besides, the “Efficacy in % found” value with Pyrenophora teres (Table I2, 62.5 ppm a.i.) is listed as 67%.

Take `COC(=O)N(OC)c1ccccc1COc1ccn(-c2ccc(Cl)cc2)n1` [(3.13), pyraclostrobin]: the pest or weed control at 1 ppm in the assay on Phytophthora infestans was 58%. Also, the “Efficacy in % found” value with Venturia inaequalis (test 1, 0.5 ppm a.i.) is 38%. Further, in the assay with Alternaria solani (test 1), the pest or weed control at 0.5 ppm amounted to 50%. For the same compound, the pest or weed control at 25 ppm with Botrytis cinerea (setting [1]) is 63%. In addition, the pest or weed control at 62.5 ppm in the assay on Leptosphaeria nodorum stood at 88%.

Take `CON=C(C(=O)OC)c1ccccc1CON=C(C)c1cccc(C(F)(F)F)c1` [(3.17), trifloxystrobin]: the “Efficacy in % found” value in the assay on Venturia inaequalis (test 1, 0.5 ppm a.i.) is 8%. Also, the pest or weed control at 0.5 ppm in the assay on Alternaria solani (test 1) was 30%. In the assay on Botrytis cinerea (setting [1]), the pest or weed control at 25 ppm amounted to 40%.

With `CN(C)C(=S)SSC(=S)N(C)C` [(5.25), thiram], in the assay on Leptosphaeria nodorum, the pest or weed control at 500 ppm was 33%.

`Cc1cc(C2CC2)nc(Nc2ccccc2)n1` [(7.3), cyprodinyl]: in the assay on Botrytis cinerea (Botrytis cinerea, 48 h, test 2, 10 ppm a.i., read-out: Efficacy in % found), the pest or weed control at 10 ppm was 0%. For the same compound, the “Efficacy in % found” value with Pyrenophora teres (Table I1, 125 ppm a.i.) came to 67%.

As for `O=[N+]([O-])c1cc(C(F)(F)F)c(Cl)c([N+](=O)[O-])c1Nc1ncc(C(F)(F)F)cc1Cl` [(14.2), fluazinam], the pest or weed control at 500 ppm in the assay with Leptosphaeria nodorum was 89%.

The record behind these values is patent US9006139B2, “Active compound combinations” (Bayer Intellectual Property GmbH, priority 2009, dated 2015).
